# Laboratory results reported in patent US9957271B2, “Substituted bicyclic aza-heterocycles and analogues as sirtuin modulators” (GlaxoSmithKline, LLC, priority 2012, dated 2018).
# Tests used:
# SIRT1 [1] = molecular target: T1, SIRT1 (Homo sapiens, UniProt Q96EB6); assay: TAMRA based mass spectrometry assay of SIRT1 activity; type: biochemical; conditions: for Emax: read-out: TAMRA % Fold Act
# T1 sequence (Q96EB6 1-747): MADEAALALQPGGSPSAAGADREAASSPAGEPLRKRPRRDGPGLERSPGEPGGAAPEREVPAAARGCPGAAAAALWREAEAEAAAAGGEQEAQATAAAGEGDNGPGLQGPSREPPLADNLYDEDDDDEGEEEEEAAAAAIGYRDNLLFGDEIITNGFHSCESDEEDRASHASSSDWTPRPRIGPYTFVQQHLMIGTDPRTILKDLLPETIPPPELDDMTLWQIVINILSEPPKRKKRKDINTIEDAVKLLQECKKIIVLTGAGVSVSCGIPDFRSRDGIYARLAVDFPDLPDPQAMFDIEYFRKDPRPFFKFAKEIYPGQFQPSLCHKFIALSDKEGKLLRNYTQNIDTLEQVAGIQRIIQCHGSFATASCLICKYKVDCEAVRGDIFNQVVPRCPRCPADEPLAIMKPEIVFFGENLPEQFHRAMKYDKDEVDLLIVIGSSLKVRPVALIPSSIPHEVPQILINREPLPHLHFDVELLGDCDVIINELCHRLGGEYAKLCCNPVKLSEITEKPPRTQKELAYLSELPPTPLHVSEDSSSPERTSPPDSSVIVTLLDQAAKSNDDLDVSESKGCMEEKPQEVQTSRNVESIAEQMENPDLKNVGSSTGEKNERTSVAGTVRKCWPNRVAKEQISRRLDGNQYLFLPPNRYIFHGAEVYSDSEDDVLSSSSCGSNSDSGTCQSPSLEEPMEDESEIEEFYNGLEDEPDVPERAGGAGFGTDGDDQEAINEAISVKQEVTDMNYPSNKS
# Summary of the method: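 Deacetylation of a biotinylated, TAMRA-tagged p53-based peptide (0.5 μM) by 10 nM His-tagged SIRT1 with 120 μM βNAD+, 25 °C for 25 min, pH 8 Tris-acetate buffer, across a compound concentration range. Quenched by formic acid and read by mass spec as product peptide or OAADPR; activity relative to DMSO reactions, nicotinamide defining maximal inhibition.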
# SIRT1 [2] = molecular target: T1, SIRT1; assay: Trp mass spectrometry assay of SIRT1 activity; type: biochemical; conditions: for Emax: read-out: Trp % Fold Act
# Summary of the method: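 Activation readout: EC1.5 (concentration raising activity 50% over control) and percent maximum activation, from mass-spec quantitation of OAADPR or deacetylated Trp peptide. Reaction: 0.5 μM acetylated Trp peptide, 120 μM βNAD+, 10 nM bacterially expressed N-His SIRT1, pH 7.5 HEPES buffer with […], 25 min at 25° C.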
# [3] = concentration of test compound giving 150% activation of SIRT1, TAMRA peptide substrate
# [4] = percent maximum fold activation of SIRT1, TAMRA peptide substrate
# [5] = concentration of test compound giving 150% activation of SIRT1, Trp peptide substrate
# [6] = percent maximum fold activation of SIRT1, Trp peptide substrate
# [7] = TAMRA peptide substrate, concentration giving 150% activation of SIRT1
# [8] = TAMRA peptide substrate, percent maximum fold activation
# [9] = Trp peptide substrate, concentration giving 150% activation of SIRT1
# [10] = Trp peptide substrate, percent maximum fold activation
# [11] = TAMRA assay, concentration giving 150% activation of SIRT1
# [12] = TAMRA assay, percent maximum fold activation
# [13] = Trp assay, concentration giving 150% activation of SIRT1
# [14] = Trp assay, percent maximum fold activation
Compound,TAMRA EC1.5 (μM) (SIRT1 [1]; [11]),Emax (SIRT1 [1]; [12]),Trp EC1.5 (μM) (SIRT1 [2]; [13]),Emax (SIRT1 [2]; [14]),also measured
O=C(Nc1cccnc1)c1cnc2ccc(-c3ccc(F)c(F)c3F)nn12 [Compound 131],–,–,–,–,TAMRA EC1.5 (μM) (SIRT1 [1]; [3]): C (EC1.5>25 μM); Emax (SIRT1 [1]; [4]): < 350%; Trp EC1.5 (μM) (SIRT1 [2]; [5]): C (EC1.5>25 μM); Emax (SIRT1 [2]; [6]): < 350%
COc1cccc(C(=O)Nc2cnc3ccc(-c4ccccc4C(F)(F)F)nn23)n1 [Compound 437],–,–,–,–,TAMRA EC1.5 (SIRT1 [1]; [7]): A (EC1.5<1 μM); Emax (SIRT1 [1]; [8]): ≥ 350%; Trp EC1.5 (SIRT1 [2]; [9]): A (EC1.5<1 μM); Emax (SIRT1 [2]; [10]): ≥ 350%
CCOc1nccc(NC(=O)c2cnc3ccc(-c4ccccc4C(F)(F)F)nn23)n1 [Compound 600],A (EC1.5<1 μM),≥ 350%,A (EC1.5<1 μM),≥ 350%,–
Cc1nc2ccc(-c3ccccc3C(F)(F)F)nn2c1C(=O)Nc1cccc(N2CCC2)n1 [Compound 69],–,–,–,–,TAMRA EC1.5 (μM) (SIRT1 [1]; [3]): A (EC1.5<1 μM); Emax (SIRT1 [1]; [4]): ≥ 350%; Trp EC1.5 (μM) (SIRT1 [2]; [5]): B (EC1.5 1-25 μM); Emax (SIRT1 [2]; [6]): ≥ 350%
CCNc1cccc(NC(=O)c2cnc3ccc(-c4ccccc4Cl)nn23)n1 [Compound 326],A (EC1.5<1 μM),≥ 350%,A (EC1.5<1 μM),< 350%,–
Cc1nc2ccc(-c3ccccc3C(F)(F)F)nn2c1NC(=O)c1nccs1 [Compound 380],B (EC1.5 1-25 μM),≥ 350%,C (EC1.5>25 μM),< 350%,–
O=C(Nc1cnn2ccc(-c3ccccc3OC(F)(F)F)nc12)c1cnccn1 [Compound 584],–,–,–,–,TAMRA EC1.5 (SIRT1 [1]; [7]): B (EC1.5 1-25 μM); Emax (SIRT1 [1]; [8]): ≥ 350%; Trp EC1.5 (SIRT1 [2]; [9]): C (EC1.5>25 μM); Emax (SIRT1 [2]; [10]): < 350%
Cc1nc(C(=O)Nc2c(C)nc3ccc(-c4ccccc4Cl)nn23)cs1 [Compound 351],B (EC1.5 1-25 μM),< 350%,C (EC1.5>25 μM),< 350%,–
Cc1cccc(NC(=O)c2cnc3ccc(-c4ccccc4OCC(O)CO)nn23)n1 (centres unmarked) [Compound 369],A (EC1.5<1 μM),≥ 350%,B (EC1.5 1-25 μM),≥ 350%,–
COc1ccc(NC(=O)c2c(C)nc3ccc(-c4ccccc4Cl)nn23)nn1 [Compound 743],B (EC1.5 1-25 μM),< 350%,C (EC1.5>25 μM),< 350%,–
O=C(Nc1ccccn1)c1cnc2ccc(-c3cccc(F)c3Cl)nn12 [Compound 182],–,–,–,–,TAMRA EC1.5 (μM) (SIRT1 [1]; [3]): B (EC1.5 1-25 μM); Emax (SIRT1 [1]; [4]): < 350%; Trp EC1.5 (μM) (SIRT1 [2]; [5]): B (EC1.5 1-25 μM); Emax (SIRT1 [2]; [6]): < 350%
CS(=O)(=O)c1ccccc1-c1ccc2ncc(C(=O)Nc3ccnc(N4CCC4)c3)n2n1 [Compound 186],–,–,–,–,TAMRA EC1.5 (μM) (SIRT1 [1]; [3]): B (EC1.5 1-25 μM); Emax (SIRT1 [1]; [4]): < 350%; Trp EC1.5 (μM) (SIRT1 [2]; [5]): C (EC1.5>25 μM); Emax (SIRT1 [2]; [6]): < 350%
Cc1nc(C(=O)Nc2cnn3ccc(-c4ccccc4OC(F)(F)F)nc23)cs1 [Compound 752],B (EC1.5 1-25 μM),≥ 350%,B (EC1.5 1-25 μM),< 350%,–
Cc1cncc(C(=O)Nc2cnc3ccc(-c4ccccc4C(F)(F)F)nn23)c1 [Compound 231],B (EC1.5 1-25 μM),≥ 350%,B (EC1.5 1-25 μM),< 350%,–
Cc1nc(C(=O)Nc2cnc3cc(C)c(-c4ccccc4C(F)(F)F)nn23)c(C)s1 [Compound 445],–,–,–,–,TAMRA EC1.5 (SIRT1 [1]; [7]): A (EC1.5<1 μM); Emax (SIRT1 [1]; [8]): ≥ 350%; Trp EC1.5 (SIRT1 [2]; [9]): B (EC1.5 1-25 μM); Emax (SIRT1 [2]; [10]): < 350%
Cn1cnc(C(=O)Nc2cnc3ccc(-c4ccccc4C(F)(F)F)nn23)c1 [Compound 92],–,–,–,–,TAMRA EC1.5 (μM) (SIRT1 [1]; [3]): B (EC1.5 1-25 μM); Emax (SIRT1 [1]; [4]): ≥ 350%; Trp EC1.5 (μM) (SIRT1 [2]; [5]): C (EC1.5>25 μM); Emax (SIRT1 [2]; [6]): < 350%
Cc1cncc(NC(=O)c2c(C)nn3ccc(-c4ccccc4C(F)(F)F)nc23)n1 [Compound 737],A (EC1.5<1 μM),≥ 350%,A (EC1.5<1 μM),≥ 350%,–
